Laboratory results published in ChEMBL document CHEMBL1687756 (Antimicrob Agents Chemother, 2010).

Assays:
[1] = Cmax in Beagle dog at 5 mg/kg administered intramuscularly after 176 days; type: ADME, organism-based, Canis lupus familiaris; parameters: dose 5 mg/kg, route intramuscular; details: in vivo, im
[2] = AUC (0 to last) in Beagle dog at 5 mg/kg, sc after 184 days; type: ADME, organism-based, Canis lupus familiaris; parameters: time 0 - last, dose 5 mg/kg, route subcutaneous; details: plasma
[3] = Drug level in Beagle dog muscle at injected site at 5 mg/kg, sc after 6 months; type: ADME, organism-based, Canis lupus familiaris, Muscle tissue; parameters: dose 5 mg/kg, route subcutaneous; details: read-out: Drug uptake
[4] = Drug level in Beagle dog muscle at non-injected site at 5 mg/kg administered intramuscularly after 3 months; type: ADME, organism-based, Canis lupus familiaris, Muscle tissue; parameters: dose 5 mg/kg, route intramuscular; details: im, read-out: Drug uptake
[5] = Drug level in Beagle dog skin at non-injected site at 5 mg/kg administered intramuscularly after 6 months; type: ADME, organism-based, Canis lupus familiaris, Zone of skin; parameters: dose 5 mg/kg, route intramuscular; details: im, read-out: Drug uptake
[6] = Drug level in Beagle dog skin at non-injected site at 5 mg/kg, sc after 6 months; type: ADME, organism-based, Canis lupus familiaris, Zone of skin; parameters: dose 5 mg/kg, route subcutaneous; details: read-out: Drug uptake
[7] = Drug level in male Beagle dog spleen at 200 mg/kg, sc after 3 months; type: ADME, organism-based, Canis lupus familiaris; parameters: dose 200 mg/kg, route subcutaneous; details: read-out: Drug uptake
[8] = Drug level in male Beagle dog thymus at 200 mg/kg, sc after 3 months; type: ADME, organism-based, Canis lupus familiaris; parameters: dose 200 mg/kg, route subcutaneous; details: read-out: Drug uptake
[9] = Plasma concentration in female Beagle dog at 200 mg/kg administered intramuscularly after 3 months; type: ADME, organism-based, Canis lupus familiaris; parameters: dose 200 mg/kg, route intramuscular; details: im
[10] = Drug level in female Beagle dog spleen at 200 mg/kg, sc after 3 months; type: ADME, organism-based, Canis lupus familiaris; parameters: dose 200 mg/kg, route subcutaneous; details: read-out: Drug uptake
[11] = Drug level in female Beagle dog spleen at 400 mg/kg, sc after 3 months; type: ADME, organism-based, Canis lupus familiaris; parameters: dose 400 mg/kg, route subcutaneous; details: read-out: Drug uptake
[12] = Drug level in female Beagle dog spleen at 400 mg/kg administered intramuscularly after 3 months; type: ADME, organism-based, Canis lupus familiaris; parameters: dose 400 mg/kg, route intramuscular; details: im, read-out: Drug uptake
[13] = Ratio of drug level in thymus to plasma in male Beagle dog at 200 mg/kg, sc after 1 month; type: ADME, organism-based, Canis lupus familiaris; parameters: dose 200 mg/kg, route subcutaneous
[14] = Ratio of drug level in spleen to plasma in male Beagle dog at 200 mg/kg, sc after 3 months; type: ADME, organism-based, Canis lupus familiaris; parameters: dose 200 mg/kg, route subcutaneous
[15] = Ratio of drug level in spleen to plasma in male Beagle dog at 200 mg/kg administered intramuscularly after 3 months; type: ADME, organism-based, Canis lupus familiaris; parameters: dose 200 mg/kg, route intramuscular; details: im
[16] = Ratio of drug level in spleen to plasma in male Beagle dog at 400 mg/kg administered intramuscularly after 3 months; type: ADME, organism-based, Canis lupus familiaris; parameters: dose 400 mg/kg, route intramuscular; details: im
[17] = Ratio of drug level in thymus to plasma in male Beagle dog at 200 mg/kg, sc after 3 months; type: ADME, organism-based, Canis lupus familiaris; parameters: dose 200 mg/kg, route subcutaneous
[18] = Ratio of drug level in thymus to plasma in male Beagle dog at 400 mg/kg administered intramuscularly after 3 months; type: ADME, organism-based, Canis lupus familiaris; parameters: dose 400 mg/kg, route intramuscular; details: im
[19] = Drug level in Beagle dog liver at 5 mg/kg, sc after 6 months; type: ADME, organism-based, Canis lupus familiaris; parameters: dose 5 mg/kg, route subcutaneous; details: read-out: Drug uptake
[20] = Drug level in Beagle dog lymph node iliac at 5 mg/kg administered intramuscularly after 3 months; type: ADME, organism-based, Canis lupus familiaris; parameters: dose 5 mg/kg, route intramuscular; details: im, read-out: Drug uptake
[21] = Drug level in Beagle dog lymph node iliac at 5 mg/kg administered intramuscularly after 6 months; type: ADME, organism-based, Canis lupus familiaris; parameters: dose 5 mg/kg, route intramuscular; details: im, read-out: Drug uptake
[22] = Drug level in Beagle dog lymph node iliac at 5 mg/kg, sc after 1 month; type: ADME, organism-based, Canis lupus familiaris; parameters: dose 5 mg/kg, route subcutaneous; details: read-out: Drug uptake
[23] = Drug level in Beagle dog lymph node iliac at 5 mg/kg, sc after 6 months; type: ADME, organism-based, Canis lupus familiaris; parameters: dose 5 mg/kg, route subcutaneous; details: read-out: Drug uptake
[24] = Drug level in Beagle dog lymph node popliteal at 5 mg/kg, sc after 6 months; type: ADME, organism-based, Canis lupus familiaris; parameters: dose 5 mg/kg, route subcutaneous; details: read-out: Drug uptake
[25] = Ratio of drug level in lymph node popliteal to plasma in Beagle dog at 5 mg/kg, sc after 3 months; type: ADME, organism-based, Canis lupus familiaris; parameters: dose 5 mg/kg, route subcutaneous
[26] = AUC (0 to infinity) in Sprague-Dawley rat at 1.25 mg/kg, iv after 2 days; type: ADME, organism-based; parameters: time infinity, dose 1.25 mg/kg, route intravenous; details: plasma
[27] = Ratio of drug level in lymph node axillar to plasma in Beagle dog at 5 mg/kg, sc after 6 months; type: ADME, organism-based, Canis lupus familiaris; parameters: dose 5 mg/kg, route subcutaneous; details: axillary lymph node/plasma
[28] = Drug level in Beagle dog lymph node mandibular at 5 mg/kg administered intramuscularly after 6 months; type: ADME, organism-based, Canis lupus familiaris; parameters: dose 5 mg/kg, route intramuscular; details: im, read-out: Drug uptake
[29] = Ratio of drug level in lymph node mandibular to plasma in Beagle dog at 5 mg/kg, sc after 3 months; type: ADME, organism-based, Canis lupus familiaris; parameters: dose 5 mg/kg, route subcutaneous
[30] = Drug level in Beagle dog spleen at 5 mg/kg administered intramuscularly after 6 months; type: ADME, organism-based, Canis lupus familiaris; parameters: dose 5 mg/kg, route intramuscular; details: im, read-out: Drug uptake
[31] = Ratio of drug level in spleen to plasma in Beagle dog at 5 mg/kg, sc after 3 months; type: ADME, organism-based, Canis lupus familiaris; parameters: dose 5 mg/kg, route subcutaneous
[32] = Ratio of drug level in spleen to plasma in Beagle dog at 5 mg/kg, sc after 6 months; type: ADME, organism-based, Canis lupus familiaris; parameters: dose 5 mg/kg, route subcutaneous
[33] = Ratio of drug level in thymus to plasma in Beagle dog at 5 mg/kg, sc after 6 months; type: ADME, organism-based, Canis lupus familiaris; parameters: dose 5 mg/kg, route subcutaneous
[34] = Drug level in male Beagle dog spleen at 200 mg/kg, sc after 1 month; type: ADME, organism-based, Canis lupus familiaris; parameters: dose 200 mg/kg, route subcutaneous; details: read-out: Drug uptake
[35] = Drug level in male Beagle dog spleen at 200 mg/kg administered intramuscularly after 1 month; type: ADME, organism-based, Canis lupus familiaris; parameters: dose 200 mg/kg, route intramuscular; details: im, read-out: Drug uptake
[36] = Drug level in male Beagle dog thymus at 400 mg/kg administered intramuscularly after 1 month; type: ADME, organism-based, Canis lupus familiaris; parameters: dose 400 mg/kg, route intramuscular; details: im, read-out: Drug uptake
[37] = Drug level in female Beagle dog thymus at 200 mg/kg, sc after 1 month; type: ADME, organism-based, Canis lupus familiaris; parameters: dose 200 mg/kg, route subcutaneous; details: read-out: Drug uptake
[38] = Drug level in female Beagle dog thymus at 400 mg/kg, sc after 1 month; type: ADME, organism-based, Canis lupus familiaris; parameters: dose 400 mg/kg, route subcutaneous; details: read-out: Drug uptake
[39] = Ratio of drug level in spleen to plasma in female Beagle dog at 400 mg/kg, sc after 1 month; type: ADME, organism-based, Canis lupus familiaris; parameters: dose 400 mg/kg, route subcutaneous
[40] = Ratio of drug level in thymus to plasma in female Beagle dog at 200 mg/kg, sc after 1 month; type: ADME, organism-based, Canis lupus familiaris; parameters: dose 200 mg/kg, route subcutaneous
[41] = Ratio of drug level in thymus to plasma in female Beagle dog at 400 mg/kg, sc after 1 month; type: ADME, organism-based, Canis lupus familiaris; parameters: dose 400 mg/kg, route subcutaneous
[42] = Ratio of drug level in thymus to plasma in female Beagle dog at 200 mg/kg administered intramuscularly after 1 month; type: ADME, organism-based, Canis lupus familiaris; parameters: dose 200 mg/kg, route intramuscular; details: im
[43] = Ratio of drug level in spleen to plasma in female Beagle dog at 200 mg/kg, sc after 3 months; type: ADME, organism-based, Canis lupus familiaris; parameters: dose 200 mg/kg, route subcutaneous
[44] = Ratio of drug level in spleen to plasma in female Beagle dog at 400 mg/kg administered intramuscularly after 3 months; type: ADME, organism-based, Canis lupus familiaris; parameters: dose 400 mg/kg, route intramuscular; details: im
[45] = Ratio of drug level in thymus to plasma in female Beagle dog at 400 mg/kg administered intramuscularly after 3 months; type: ADME, organism-based, Canis lupus familiaris; parameters: dose 400 mg/kg, route intramuscular; details: im
[46] = test system: Canis familiaris; assay: Toxicity in Beagle dog assessed as abscess formation at 20 mg/kg, sc after 3 months; type: organism-based, Canis lupus familiaris; parameters: dose 20 mg/kg, route subcutaneous; details: in vivo, 2191.5 h
[47] = test system: Canis familiaris; assay: Toxicity in Beagle dog assessed as abscess formation at 20 mg/kg administered intramuscularly after 3 months; type: organism-based, Canis lupus familiaris; parameters: dose 20 mg/kg, route intramuscular; details: in vivo, im, 2191.5 h
[48] = Cmax in male dog at 200 mg, sc after 29 days; details: in vivo
[49] = Cmax in female dog at 200 mg, sc after 29 days; details: in vivo
[50] = AUC (0 to last) in female dog at 200 mg, sc after 29 days; details: plasma
[51] = Tmax in female dog at 200 mg administered intramuscularly after 29 days; details: in vivo, im
[52] = Tmax in female dog at 400 mg administered intramuscularly after 29 days; details: in vivo, im
[53] = Cmax in female dog at 400 mg administered intramuscularly after 85 days; details: in vivo, im
[54] = AUC (0 to last) in male dog at 200 mg administered intramuscularly after 85 days; details: plasma, im

With `Cc1cc(/C=C/C#N)cc(C)c1Nc1ccnc(Nc2ccc(C#N)cc2)n1` [RILPIVIRINE] the Cmax [1] was 0.619 µg/mL, the AUC(0-t) at 4416 h [2] was 24.4 µg·h/mL and the concentration at 4383 h [3] was 48 ng/g. The concentration at 2191.5 h [4] was 84.1 ng/g, the concentration at 4383 h [5] was 6.7 ng/g and the concentration at 4383 h [6] was 13.3 ng/g. It also gave a concentration at 2191.5 h [7] of 36.2 ng/g, a concentration at 2191.5 h [8] of 84.2 ng/g and a concentration at 2191.5 h [9] of 0.0101 µg/mL. The concentration at 2191.5 h [10] was 49.5 ng/g, the concentration at 2191.5 h [11] was 67.5 ng/g and the concentration at 2191.5 h [12] was 46.1 ng/g. For the same molecule, the Kp at 730.5 h [13] was 6, the Kp at 2191.5 h [14] was 2.5 and the Kp at 2191.5 h [15] was 2.7. For the same molecule, the Kp at 2191.5 h [16] was 2.9, the Kp at 2191.5 h [17] was 5.9 and the Kp at 2191.5 h [18] was 3.9. For the same molecule, the concentration at 4383 h [19] was 31.1 ng/g, the concentration at 2191.5 h [20] was 15.3 ng/g and the concentration at 4383 h [21] was 10.7 ng/g. It also gave a concentration at 730.5 h [22] of 64.9 ng/g, a concentration at 4383 h [23] of 9.9 ng/g and a concentration at 4383 h [24] of 5.5 ng/g. The Kp at 2191.5 h [25] was 8.2, the AUC(0-inf) [26] was 1.23 µg·h/mL and the Kp at 4383 h [27] was 6.7. For the same molecule, the concentration at 4383 h [28] was 6.9 ng/g, the Kp at 2191.5 h [29] was 4 and the concentration at 4383 h [30] was less than 5 ng/g. It also gave a Kp at 2191.5 h [31] of 3, a Kp at 4383 h [32] of 5.5 and a Kp at 4383 h [33] of 16. For the same molecule, the concentration at 730.5 h [34] was 189 ng/g, the concentration at 730.5 h [35] was 133 ng/g and the concentration at 730.5 h [36] was 634 ng/g. For the same molecule, the concentration at 730.5 h [37] was 536 ng/g, the concentration at 730.5 h [38] was 1200 ng/g and the Kp at 730.5 h [39] was 2.5. It also gave a Kp at 730.5 h [40] of 3.9, a Kp at 730.5 h [41] of 5 and a Kp at 730.5 h [42] of 5.7. For the same molecule, the Kp at 2191.5 h [43] was 1.9, the Kp at 2191.5 h [44] was 2.3 and the Kp at 2191.5 h [45] was 4.9. For the same molecule, the Activity [46] was “Non-toxic”, the Activity [47] was “Non-toxic” and the Cmax [48] was 0.119 µg/mL. For the same molecule, the Cmax [49] was 0.185 µg/mL, the AUC(0-t) at 696 h [50] was 70.6 µg·h/mL and the Tmax [51] was 4.6 h. It also gave a Tmax [52] of 8.3 h, a Cmax [53] of 5.26 µg/mL and an AUC(0-t) at 2040 h [54] of 148 µg·h/mL.
